Test results published in patent US11173151B2, “Substituted triazole derivatives and uses thereof” (BAYER AKTIENGESELLSCHAFT, priority 2017, dated 2021).
Read-outs that look alike come from different tables or passages of the source.

Experiments:
[1] = biological target: T1, human V1a receptor (Homo sapiens, UniProt P37288); experiment: Cellular in vitro assay for determining vasopressin receptor activity, V1a receptor cell line (CHO, aequorin luminescence); format: cell-based; conditions: for IC50: CHO cell line transfected with human V1a receptor, [Arg]-vasopressin at EC50 concentration, read-out: IC50 hV1a; for ratio IC50 hV2/hV1a: selectivity ratio IC50 hV2 / IC50 hV1a
T1 construct: expressed in transfected cells; host or cells: CHO K1 (ATCC), also stably transfected with a modified aequorin
T1 sequence (P37288 whole entry): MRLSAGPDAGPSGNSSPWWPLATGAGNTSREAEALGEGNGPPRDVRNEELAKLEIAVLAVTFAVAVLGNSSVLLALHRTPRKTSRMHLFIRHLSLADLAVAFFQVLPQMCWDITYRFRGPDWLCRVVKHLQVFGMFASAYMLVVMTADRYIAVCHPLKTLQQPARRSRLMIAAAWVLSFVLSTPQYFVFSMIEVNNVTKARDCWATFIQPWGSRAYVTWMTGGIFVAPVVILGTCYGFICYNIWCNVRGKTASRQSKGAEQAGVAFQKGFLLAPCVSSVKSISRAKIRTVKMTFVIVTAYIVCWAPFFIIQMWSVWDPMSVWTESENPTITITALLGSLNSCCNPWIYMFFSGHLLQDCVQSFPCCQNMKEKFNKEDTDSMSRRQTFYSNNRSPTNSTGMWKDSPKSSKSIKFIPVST
Summary of the method: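 Cells were plated the day before in medium containing 5 μg/ml coelenterazine and kept at 37° C. Compounds at various concentrations were then added for 10 minutes. Next, [Arg]-vasopressin at EC50 was applied and light output recorded at once, yielding IC50.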

[2] = biological target: T2, human V2 receptor (Homo sapiens, UniProt P30518); experiment: Cellular in vitro assay for determining vasopressin receptor activity, V2 receptor cell line (CHO, CRE-luciferase); format: cell-based; conditions: CHO cell line transfected with human V2 receptor, [Arg8]-vasopressin at EC50 concentration, read-out: IC50 hV2
T2 construct: expressed in transfected cells; host or cells: CHO K1 (ATCC) expressing firefly luciferase under a CRE-responsive promoter
T2 sequence (P30518 whole entry): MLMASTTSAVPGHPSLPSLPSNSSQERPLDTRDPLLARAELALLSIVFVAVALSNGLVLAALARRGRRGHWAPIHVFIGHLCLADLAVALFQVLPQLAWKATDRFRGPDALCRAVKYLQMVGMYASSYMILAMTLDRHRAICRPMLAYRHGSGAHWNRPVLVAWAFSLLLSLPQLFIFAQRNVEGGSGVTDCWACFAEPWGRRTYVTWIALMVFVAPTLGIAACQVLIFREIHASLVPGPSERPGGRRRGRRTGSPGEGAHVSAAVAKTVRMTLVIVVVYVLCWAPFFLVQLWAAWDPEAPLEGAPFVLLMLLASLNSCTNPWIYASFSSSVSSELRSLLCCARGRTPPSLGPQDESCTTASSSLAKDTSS

Row | SMILES | IC50 [1] [nM] | ratio IC50 hV2/hV1a [1] | IC50 ([2]; 3 hours) [nM] | IC50 [2] [nM]
1 | CN(Cc1ccco1)C(=O)c1ccccc1-n1cnc(Cn2nc(-c3ccc(Cl)cc3)n(C[C@H](O)C(F)(F)F)c2=O)n1 [Example 330, 2-[3-({3-(4-Chlorophenyl)-5-oxo-4-[(2S)-3,3,3-trifluoro-2-hydroxypropyl]-4,5-dihydro-1H-1,2,4-triazol-1-yl}methyl)-1H-1,2,4-triazol-1-yl]-N-(furan-2-ylmethyl)-N-methylbenzamide] | 9.95 | 135.7 | 1350 | –
2 | CC1CN(C(=O)c2ccccc2-n2cnc(Cn3nc(-c4ccc(Cl)cc4)n(C[C@H](O)C(F)(F)F)c3=O)n2)CCO1 (mixture of isomers) [Example 283, 5-(4-Chlorophenyl)-2-{[1-(2-{[2-methylmorpholin-4-yl]carbonyl}phenyl)-1H-1,2,4-triazol-3-yl]methyl}-4-[(2S)-3,3,3-trifluoro-2-hydroxypropyl]-2,4-dihydro-3H-1,2,4-triazol-3-one] | 6.05 | 1239.7 | 7500 | –
3 | O=C(CN1CCCC1=O)Nc1ncccc1-n1cnc(Cn2nc(-c3ccc(Cl)cc3)n(C[C@H](O)C(F)(F)F)c2=O)n1 [Example 91] | 195 | 6.4 | 1250 | –
4 | CC1COCCN1C(=O)c1ccccc1-n1cnc(Cn2nc(-c3ccc(Cl)cc3)n(C[C@H](O)C(F)(F)F)c2=O)n1 (mixture of isomers) [Example 282, 5-(4-Chlorophenyl)-2-{[1-(2-{[3-methylmorpholin-4-yl]carbonyl}phenyl)-1H-1,2,4-triazol-3-yl]methyl}-4-[(2S)-3,3,3-trifluoro-2-hydroxypropyl]-2,4-dihydro-3H-1,2,4-triazol-3-one] | 2.35 | 1000.0 | 2350 | –
5 | O=C(Nc1cccc[n+]1[O-])c1ccccc1-n1cnc(Cn2nc(-c3ccc(Cl)cc3)n(C[C@H](O)C(F)(F)F)c2=O)n1 [Example 219, 2-[3-({3-(4-Chlorophenyl)-5-oxo-4-[(2S)-3,3,3-trifluoro-2-hydroxypropyl]-4,5-dihydro-1H-1,2,4-triazol-1-yl}methyl)-1H-1,2,4-triazol-1-yl]-N-(1-oxidopyridin-2-yl)benzamide] | 21 | 2.0 | 41.5 | –
6 | O=C(CC1CCCCO1)Nc1ncccc1-n1cnc(Cn2nc(-c3ccc(Cl)cc3)n(C[C@H](O)C(F)(F)F)c2=O)n1 (stereo partly drawn) [Example 165] | 66 | 9.6 | 635 | –
7 | Cn1nccc1C(=O)Nc1ncccc1-n1cnc(Cn2nc(-c3ccc(Cl)cc3)n(C[C@H](O)C(F)(F)F)c2=O)n1 [Example 106] | 2.35 | 510.6 | 1200 | –

Other lines, results leading:

Row | IC50 [1] [nM] | ratio IC50 hV2/hV1a [1] | IC50 ([2]; 3 hours) [nM] | IC50 [2] [nM] | SMILES
8 | 635 | 50.4 | – | 32000 | O=C(c1cccc(C(F)(F)F)c1-n1cnc(Cn2nc(-c3ccc(Cl)cc3)n(C[C@H](O)C(F)(F)F)c2=O)n1)N1CCS(=O)(=O)CC1 [Example 418, 5-(4-Chlorophenyl)-2-[(1-{2-[(1,1-dioxidothiomorpholin-4-yl)carbonyl]-6-(trifluoromethyl)phenyl}-1H-1,2,4-triazol-3-yl)methyl]-4-[(2S)-3,3,3-trifluoro-2-hydroxypropyl]-2,4-dihydro-3H-1,2,4-triazol-3-one]
9 | 3.95 | 23.7 | 93.5 | – | O=C(Nc1ccc(F)cc1O)c1ccccc1-n1cnc(Cn2nc(-c3ccc(Cl)cc3)n(C[C@H](O)C(F)(F)F)c2=O)n1 [Example 217, 2-[3-({3-(4-Chlorophenyl)-5-oxo-4-[(2S)-3,3,3-trifluoro-2-hydroxypropyl]-4,5-dihydro-1H-1,2,4-triazol-1-yl}methyl)-1H-1,2,4-triazol-1-yl]-N-(4-fluoro-2-hydroxyphenyl)benzamide]
10 | 29.5 | 27.6 | – | 815 | O=C(NC1(C(F)(F)F)CC1)c1ncccc1-n1cnc(Cn2nc(-c3ccc(Cl)cc3)n(C[C@H](O)C(F)(F)F)c2=O)n1 [Example 447, 3-[3-({3-(4-Chlorophenyl)-5-oxo-4-[(2S)-3,3,3-trifluoro-2-hydroxypropyl]-4,5-dihydro-1H-1,2,4-triazol-1-yl}methyl)-1H-1,2,4-triazol-1-yl]-N-[1-(trifluoromethyl)cyclopropyl]pyridine-2-carboxamide]
11 | 10.5 | 44.8 | – | 470 | O=C(NC1CC(F)(F)C1)c1cccnc1-n1cnc(Cn2nc(-c3ccc(Cl)cc3)n(C[C@H](O)C(F)(F)F)c2=O)n1 [Example 498, 2-[3-({3-(4-Chlorophenyl)-5-oxo-4-[(2S)-3,3,3-trifluoro-2-hydroxypropyl]-4,5-dihydro-1H-1,2,4-triazol-1-yl}methyl)-1H-1,2,4-triazol-1-yl]-N-(3,3-difluorocyclobutyl)pyridine-3-carboxamide]
12 | 325 | 10.2 | – | 3300 | O=C(NCCC(F)(F)F)c1cccc(Cl)c1-n1cnc(Cn2nc(-c3ccc(Cl)cc3)n(C[C@@H](O)C(F)(F)F)c2=O)n1 [Example 410, 3-Chloro-2-[3-({3-(4-chlorophenyl)-5-oxo-4-[(2R)-3,3,3-trifluoro-2-hydroxypropyl]-4,5-dihydro-1H-1,2,4-triazol-1-yl}methyl)-1H-1,2,4-triazol-1-yl]-N-(3,3,3-trifluoropropyl)benzamide]
13 | 16.5 | 615.2 | – | 10100 | CC1(NC(=O)c2cccc(Cl)c2-n2cnc(Cn3nc(-c4ccc(Cl)cc4)n(C[C@@H](O)C(F)(F)F)c3=O)n2)CC1 [Example 405, 3-Chloro-2-[3-({3-(4-chlorophenyl)-5-oxo-4-[(2R)-3,3,3-trifluoro-2-hydroxypropyl]-4,5-dihydro-1H-1,2,4-triazol-1-yl}methyl)-1H-1,2,4-triazol-1-yl]-N-(1-methylcyclopropyl)benzamide]
14 | 1.5 | 0.8 | 1.15 | – | O=C(Nc1nccs1)c1ccccc1-n1cnc(Cn2nc(-c3ccc(Cl)cc3)n(C[C@H](O)C(F)(F)F)c2=O)n1 [Example 223, 2-[3-({3-(4-Chlorophenyl)-5-oxo-4-[(2S)-3,3,3-trifluoro-2-hydroxypropyl]-4,5-dihydro-1H-1,2,4-triazol-1-yl}methyl)-1H-1,2,4-triazol-1-yl]-N-(1,3-thiazol-2-yl)benzamide]
15 | 29 | 69.0 | – | 2000 | O=C(NC1CC1)c1ccncc1-n1cnc(Cn2nc(-c3ccc(Cl)cc3)n(C[C@H](O)C(F)(F)F)c2=O)n1 [Example 488, 3-[3-({3-(4-chlorophenyl)-5-oxo-4-[(2S)-3,3,3-trifluoro-2-hydroxypropyl]-4,5-dihydro-1H-1,2,4-triazol-1-yl}methyl)-1H-1,2,4-triazol-1-yl]-N-cyclopropylpyridine-4-carboxamide]
16 | 22.5 | 24.0 | 540 | – | O=C(NCc1cc(F)cc(F)c1)c1ccccc1-n1cnc(Cn2nc(-c3ccc(Cl)cc3)n(C[C@H](O)C(F)(F)F)c2=O)n1 [Example 243, 2-[3-({3-(4-Chlorophenyl)-5-oxo-4-[(2S)-3,3,3-trifluoro-2-hydroxypropyl]-4,5-dihydro-1H-1,2,4-triazol-1-yl}methyl)-1H-1,2,4-triazol-1-yl]-N-(3,5-difluorobenzyl)benzamide]
